In patent US10011573B2, “Human androgen receptor DNA-binding domain (DBD) compounds as therapeutics and methods for their use” (The University of British Columbia, priority 2014, dated 2018):
Like-named read-outs stand apart in the source and are kept apart here. One block for each compound: values may come before it.

Tests used:
[1] = test system: PSA; assay: Prostate-specific antigen (PSA) assay, secreted PSA from the eGFP assay plates; assay type: cell-based, human
Procedure: 3. Prostate-specific antigen (PSA) assay: The evaluation of PSA levels secreted into the media was performed in parallel to the eGFP assay using the same plates. After cells were incubated for 3 days, 150 μl of the media was taken from each well, and added to 150 μl of PBS.

[2] = target: T1, androgen receptor (AR) (Homo sapiens, UniProt P10275, T878A); assay: eGFP cellular AR transcription assay (LNCaP eGFP cells, LN-ARR2PB-eGFP); conditions: for inhibition at 3 µM: LNCaP, read-out: % Inhibition (3 μM)
T1 sequence (P10275 1-920 T878A): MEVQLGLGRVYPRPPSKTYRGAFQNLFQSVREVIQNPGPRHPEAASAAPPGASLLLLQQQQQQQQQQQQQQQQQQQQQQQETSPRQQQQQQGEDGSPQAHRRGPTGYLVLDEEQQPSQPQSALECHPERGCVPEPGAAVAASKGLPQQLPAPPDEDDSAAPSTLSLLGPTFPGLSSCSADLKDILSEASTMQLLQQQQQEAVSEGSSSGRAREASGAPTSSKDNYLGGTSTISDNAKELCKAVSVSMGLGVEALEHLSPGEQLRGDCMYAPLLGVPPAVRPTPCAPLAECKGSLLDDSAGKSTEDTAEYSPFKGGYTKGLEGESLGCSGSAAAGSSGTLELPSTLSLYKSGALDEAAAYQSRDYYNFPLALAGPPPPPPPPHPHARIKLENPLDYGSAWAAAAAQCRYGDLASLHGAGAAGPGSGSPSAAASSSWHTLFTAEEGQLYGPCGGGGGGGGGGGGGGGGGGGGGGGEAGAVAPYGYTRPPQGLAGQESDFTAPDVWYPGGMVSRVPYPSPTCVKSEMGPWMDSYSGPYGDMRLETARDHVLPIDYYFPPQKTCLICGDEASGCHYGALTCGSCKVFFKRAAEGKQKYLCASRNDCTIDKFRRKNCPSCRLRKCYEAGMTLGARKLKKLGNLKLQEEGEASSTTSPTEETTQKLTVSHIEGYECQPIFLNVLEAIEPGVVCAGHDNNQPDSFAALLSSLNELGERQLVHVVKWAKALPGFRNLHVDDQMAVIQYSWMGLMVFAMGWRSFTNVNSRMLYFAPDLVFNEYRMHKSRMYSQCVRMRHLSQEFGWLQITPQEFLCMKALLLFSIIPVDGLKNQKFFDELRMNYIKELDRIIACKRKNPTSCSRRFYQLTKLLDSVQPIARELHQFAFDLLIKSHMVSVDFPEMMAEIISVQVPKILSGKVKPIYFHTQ

[3] = eGFP IC50 (μM), LNCaP eGFP cells

IC50 ([1]; Homo sapiens, Series 1): 160 nM
inhibition at 3 µM [2]: 97.4%
IC50 ([2]; eGFP IC50 (μM), Series 1): 0.27 µM
SMILES: Oc1c(F)cccc1-c1csc(N2CCOCC2)n1 [Compound 14365]

IC50 ([1]; Homo sapiens, Series 1): 230 nM
inhibition at 3 µM [2]: 103%
IC50 ([2]; eGFP IC50 (μM), Series 1): 0.3 µM
SMILES: COc1cc(F)ccc1-c1csc(N2CCOCC2)n1 [Compound 14367]

IC50 ([1]; Homo sapiens, Series 1): 250 nM
anti-AR activity (AR transcriptional inhibition) in words ([2]; LNCaP (T877A AR)): improved activities
inhibition at 3 µM [2]: 107%
IC50 ([2]; eGFP IC50 (μM), Series 1): 0.19 µM
SMILES: COc1c(-c2csc(N3CCOCC3)n2)ccc(F)c1F [Compound 14370]

IC50 ([1]; Homo sapiens, Series 1): 700 nM
inhibition at 3 µM [2]: 98.9%
IC50 ([2]; eGFP IC50 (μM), Series 1): 0.8 µM
SMILES: Oc1c(-c2csc(N3CCOCC3)n2)ccc(F)c1F [Compound 14371]

IC50 ([1]; Homo sapiens, secreted PSA): 8080 nM
inhibition at 3 µM [2]: 57.5%
IC50 [2, 3]: 7.41 µM
SMILES: Oc1ccc2nc(N3CCOCC3)sc2c1 [Compound 14378]

inhibition at 3 µM [2]: 106%
IC50 ([2]; eGFP IC50 (μM), Series 1): 5.27 µM
SMILES: CC(C)Oc1c(F)cccc1-c1csc(N2CCOCC2)n1 [Compound 14430]

IC50 [2, 3]: 1.95 µM
SMILES: N#Cc1cc2ccccc2nc1N1CCOCC1 [Compound 14433]

IC50 [2, 3]: 1.09 µM
SMILES: Cc1cc(N2CCOCC2)nc2ccccc12 [Compound 14434]

inhibition at 3 µM [2]: 17.3%
SMILES: O=c1[nH]c(N2CCOCC2)cc2ccccc12 [Compound 14453]

inhibition at 3 µM [2]: 0%
SMILES: O=[N+]([O-])c1ccc2nc(N3CCOCC3)ccc2c1 [Compound 14454]

IC50 ([2]; eGFP IC50 (μM), Series 1): 0.11 µM
SMILES: Clc1scc(-c2csc(N3CCOCC3)n2)c1Cl [Compound 14462]

IC50 ([2]; eGFP IC50 (μM), Series 1): 3.06 µM
SMILES: CNc1cc(F)c(OC)c(-c2csc(N3CCOCC3)n2)c1 [Compound 14465]

IC50 ([2]; eGFP IC50 (μM), Series 1): 0.4 µM
SMILES: Cc1sc(CO)c(-c2csc(N3CCOCC3)n2)c1C [Compound 14466]

IC50 ([2]; eGFP IC50 (μM), Series 1): 3.7 µM
SMILES: COc1c(F)cc(O)cc1-c1csc(N2CCOCC2)n1 [Compound 14467]

inhibition at 3 µM [2]: 89.4%
IC50 [2, 3]: 0.6 µM
SMILES: c1ccc2nc(N3CCCCC3)ccc2c1 [Compound 14495]

inhibition at 3 µM [2]: 0%
SMILES: O=C(O)c1csc(N2CCOCC2)n1 [Compound 14502]

Further lines, the compound ahead of its results:

SMILES: c1ccc(-c2csc(-c3ccncc3)n2)cc1 [Compound 14352]
IC50 ([1]; Series 1): 630 nM
IC50 ([2]; read-out: eGFP IC50): 1.19 µM

SMILES: Oc1cc(F)ccc1-c1csc(N2CCOCC2)n1 [Compound 14364]
IC50 ([1]; Series 1): 810 nM
% Inhibition (3 μM) [2]: 91.26%
IC50 ([2]; read-out: eGFP IC50): 1.22 µM

SMILES: c1ccc(-c2ccc3ccccc3n2)cc1 [Compound 14390]
IC50 ([1]; Homo sapiens, secreted PSA): 1230 nM
inhibition at 3 µM [2]: 80.2%
IC50 [2, 3]: 2.6 µM

SMILES: Clc1ccccc1-c1csc(N2CCOCC2)n1 [Compound 14437]
% Inhibition (3 μM) [2]: 45.04%

SMILES: Oc1ccc(-c2ccc3ccccc3n2)cc1 [Compound 14440]
inhibition at 3 µM [2]: 8.65%
IC50 [2, 3]: 9.48 µM

SMILES: COc1ccc(-c2csc(-c3c[nH]c4ccccc34)n2)cc1 [Compound 14443]
% Inhibition (3 μM) [2]: 25.15%

SMILES: Clc1cnccc1-c1csc(N2CCOCC2)n1 [Compound 14446]
% Inhibition (3 μM) [2]: 24%

SMILES: N#Cc1ccc(-c2csc(N3CCOCC3)n2)cc1 [Compound 14457]
% Inhibition (3 μM) ([2]; 3 µM): 80%

SMILES: O=C1C(Cl)=C(N2CCOCC2)C(=O)N1c1ccccc1Cl [Compound 14475]
% Inhibition (3 μM) [2]: 8.89%

SMILES: O=C1C(Cl)=C(N2CCOCC2)C(=O)N1c1ccccc1 [Compound 14476]
% Inhibition (3 μM) [2]: 9.79%

SMILES: FC(F)(F)c1cccc(-c2csc(-c3cnccn3)n2)c1 [Compound 14486]
% Inhibition (3 μM) [2]: 20.4%

SMILES: CC1CN(c2cnc3ccccc3n2)CC(C)O1 (stereo not drawn) [Compound 14487]
inhibition at 3 µM [2]: 27%

SMILES: c1ccc2c(c1)ncn2-c1csc(N2CCOCC2)n1 [Compound 14509]
IC50 ([2]; read-out: eGFP IC50): 1.17 µM
